Source: ChEMBL document CHEMBL5385961, “In vitro and in vivo evaluation of novel chromeno[2,3-d]pyrimidinones as therapeutic agents for triple negative breast cancer” (RSC Med Chem, 2024)
Calls of active or inactive are those of the source. No cut-off for these calls is given here.

Assays:
Hs-578T [1] = test: Cytotoxicity against human Hs-578T cells assessed as cell viability at 10 uM incubated for 72 hrs by SRB assay relative to control; type: functional; details: read-out: Activity
Hs-578T [2] = test: Cytotoxicity against human Hs-578T cells assessed as cell viability at 30 uM incubated for 72 hrs by SRB assay relative to control; type: functional; details: read-out: Activity
MDA-MB-231 [3] = test: Cytotoxicity against human MDA-MB-231 cells assessed as cell viability at 10 uM incubated for 72 hrs by SRB assay relative to control; type: functional; details: read-out: Activity
MDA-MB-231 [4] = test: Cytotoxicity against human MDA-MB-231 cells assessed as cell viability at 30 uM incubated for 72 hrs by SRB assay relative to control; type: functional; details: read-out: Activity
MCF7 [5] = test: Cytotoxicity against human MCF7 cells assessed as cell viability at 10 uM incubated for 72 hrs by SRB assay relative to control; type: functional; details: read-out: Activity
MCF7 [6] = test: Cytotoxicity against human MCF7 cells assessed as cell viability at 30 uM incubated for 72 hrs by SRB assay relative to control; type: functional; details: read-out: Activity
Hs-578T [7] = test: Cytotoxicity against human Hs-578T cells assessed as inhibition of cell growth incubated for 72 hrs by SRB assay; type: functional, cell-based
[8] = Cytotoxicity against human MCF-10A cells assessed as inhibition of cell growth incubated for 72 hrs by SRB assay; type: toxicity, cell-based
Homo sapiens = species on record: Homo sapiens; test: Selectivity index, ratio of IC50 for human MCF-10A cells to IC50 for human Hs-578T cells
Hs-578T [9] = test: Induction of apoptosis in human Hs-578T cells assessed as increase in caspase-8 protein expression at IC50 measured after 24 hrs by Western blot analysis; type: functional, cell-based
Hs-578T [10] = test: Induction of apoptosis in human Hs-578T cells assessed as increase in caspase-8 protein expression at IC50 measured after 48 hrs by Western blot analysis; type: functional, cell-based
Hs-578T [11] = test: Induction of apoptosis in human Hs-578T cells assessed as increase in caspase-9 protein expression at IC50 measured after 24 to 48 hrs by Western blot analysis; type: functional, cell-based; details: time 24-48 hrs
Hs-578T [12] = test: Induction of apoptosis in human Hs-578T cells assessed as increase in BID protein expression at IC50 measured after 24 to 48 hrs by Western blot analysis; type: functional, cell-based; details: time 24-48 hrs
Hs-578T [13] = test: Induction of apoptosis in human Hs-578T cells assessed as increase in BAD protein expression at IC50 measured after 24 to 48 hrs by Western blot analysis; type: functional, cell-based; details: time 24-48 hrs
Hs-578T [14] = test: Cytotoxicity against human Hs-578T cells assessed as reduction in cell viability at 10 uM incubated for 72 hrs by SRB assay relative to control; type: functional
Hs-578T [15] = test: Induction of apoptosis in human Hs-578T cells assessed as increase in cleaved PARP level at IC50 measured after 48 hrs by Western blot analysis; type: functional, cell-based

Row | Structure (SMILES) | viability at 10 µM (Hs-578T [1]) [%] | viability at 30 µM (Hs-578T [2]) [%] | viability at 10 µM (MDA-MB-231 [3]) [%] | viability at 30 µM (MDA-MB-231 [4]) [%] | viability at 10 µM (MCF7 [5]) [%] | viability at 30 µM (MCF7 [6]) [%] | IC50 (Hs-578T [7]) [µM] | IC50 at 72 h [8] [µM] | Ratio IC50 (Homo sapiens) | Activity (Hs-578T [9]) | Activity (Hs-578T [10]) | Activity (Hs-578T [11]) | Activity (Hs-578T [12]) | Activity (Hs-578T [13]) | Activity (Hs-578T [14]) [%] | Activity (Hs-578T [15])
1 | O=c1[nH]c(-c2ccccc2)nc2c1Cc1ccccc1O2 | 76.3 | 65.4 | 69.3 | 53.2 | 88.5 | 79.2 |  |  |  |  |  |  |  |  |  | 
2 | Cc1cccc2c1Oc1nc(-c3ccccc3)[nH]c(=O)c1C2 | 81.3 | 62.1 | 32.6 | 15.9 | 34.7 | 23.8 |  |  |  |  |  |  |  |  |  | 
3 | COc1ccc2c(c1)C=C1C(=O)NC(c3c(OC)cc(OC)cc3OC)N=C1O2 (stereo not drawn) | 97 | 65.5 | 86.3 | 78.5 | 101 | 100 |  |  |  |  |  |  |  |  |  | 
4 | COc1cccc(-c2nc3c(c(=O)[nH]2)Cc2cc(Cl)ccc2O3)c1 | 54.7 | 33.9 | 85.1 | 18.4 | 81.5 | 35.4 | 13.1 | 14 | 0.06 | Active | inactive | Active | Active | Active | ~50 | 
5 | COc1cccc2c1C(=O)c1c(O)c3c(c(O)c1C2=O)C[C@@](O)(C(=O)CO)C[C@@H]3O[C@H]1C[C@H](N)[C@H](O)[C@H](C)O1 [DOXORUBICIN] | 8.65 | 7.61 | 6.72 | 5.85 | 24.5 | 28.8 |  |  |  |  |  |  |  |  |  | 
6 | CC(C)(C)c1cc(-c2nc3c(c(=O)[nH]2)Cc2ccccc2O3)cc(C(C)(C)C)c1O | 80.2 | 81 | 95.1 | 95.2 | 97.7 | 94.7 |  |  |  |  |  |  |  |  |  | 
7 | O=c1c(O)c(-c2ccc(O)c(O)c2)oc2cc(O)cc(O)c12 [QUERCETIN] |  |  |  |  |  |  | 50.5 | 9.32 | 0.82 |  |  |  |  |  |  | 
8 | Cc1ccc2c(c1)Cc1c(nc(-c3ccccc3)[nH]c1=O)O2 | 96 | 73.3 | 90.1 | 65.6 | 85.8 | 73.1 |  |  |  |  |  |  |  |  |  | 
9 | COc1ccc(OC)c(-c2nc3c(c(=O)[nH]2)Cc2cc(Cl)ccc2O3)c1 | 91.7 | 92 | 91 | 78 | 69.2 | 62.6 |  |  |  |  |  |  |  |  |  | 
10 | COc1cccc2c1Oc1nc(-c3ccc(Br)cc3)[nH]c(=O)c1C2 | 97.7 | 84.4 | 83.7 | 80.4 | 83.8 | 75.3 |  |  |  |  |  |  |  |  |  | 
11 | COc1cc(OC)c(C2N=C3Oc4ccc(Br)cc4C=C3C(=O)N2)c(OC)c1 (stereo not drawn) | 95.2 | 68.6 | 80.6 | 64.4 | 90.6 | 76.2 |  |  |  |  |  |  |  |  |  | 
12 | COc1cccc2c1OC1=NC(c3ccc4c(c3)OCO4)NC(=O)C1=C2 (stereo not drawn) | 100 | 96.5 | 88.2 | 62.2 | 84.9 | 82.1 |  |  |  |  |  |  |  |  |  | 
13 | COc1ccc2c(c1)Cc1c(nc(-c3cc(OC)ccc3OC)[nH]c1=O)O2 | 95.9 | 96.5 | 60.9 | 49.7 | 63.7 | 57.8 |  |  |  |  |  |  |  |  |  | 
14 | CCC(CC)C1N=C2Oc3c(cccc3OC)C=C2C(=O)N1 (stereo not drawn) | 98.4 | 83 | 85.8 | 64.1 | 85.9 | 84.8 |  |  |  |  |  |  |  |  |  | 
15 | COc1cccc2c1Oc1nc(-c3cccc(Br)c3)[nH]c(=O)c1C2 | 66.8 | 40.6 | 92 | 80.8 | 78.4 | 52.4 |  |  |  |  |  |  |  |  |  | 
16 | COc1cccc2c1Oc1nc(-c3cccc(O)c3)[nH]c(=O)c1C2 | 75.9 | 67.3 | 102 | 102 | 38 | 25.4 |  |  |  |  |  |  |  |  |  | 
17 | COc1cccc(-c2nc3c(c(=O)[nH]2)Cc2cc(OC)ccc2O3)c1 | 88 | 77 | 69.3 | 41.2 | 73.1 | 49.8 |  |  |  |  |  |  |  |  |  | 
18 | COc1ccc(OC)c(-c2nc3c(c(=O)[nH]2)Cc2cccc(OC)c2O3)c1 | 72.7 | 74 | 87.1 | 88.4 | 77.7 | 76.6 |  |  |  |  |  |  |  |  |  | 
19 | O=c1[nH]c(-c2ccc3c(c2)OCO3)nc2c1Cc1cc(Br)ccc1O2 | 86.1 | 78.5 | 85.3 | 77.8 | 83.4 | 83.1 |  |  |  |  |  |  |  |  |  | 
20 | COc1cccc2c1Oc1nc(-c3ccc(F)cc3)[nH]c(=O)c1C2 | 97.5 | 84.4 | 105 | 97.8 | 88.8 | 82.9 |  |  |  |  |  |  |  |  |  | 
21 | COc1ccccc1-c1nc2c(c(=O)[nH]1)Cc1cccc(OC)c1O2 | 86 | 80.2 | 82.9 | 63.6 | 85.5 | 54.8 |  |  |  |  |  |  |  |  |  | 
22 | COc1cccc2c1Oc1nc(-c3cc(C(C)(C)C)c(O)c(C(C)(C)C)c3)[nH]c(=O)c1C2 | 30 | 18.7 | 68.1 | 58.6 | 59.8 | 43.5 | 9.08 | > 60 | > 5.61 | Active | inactive | Active | Active | Active | ~50 | Active
